# Molecular target: T1, Short transient receptor potential channel 5 (Homo sapiens, UniProt Q9UL62)
# T1 sequence (Q9UL62 whole entry): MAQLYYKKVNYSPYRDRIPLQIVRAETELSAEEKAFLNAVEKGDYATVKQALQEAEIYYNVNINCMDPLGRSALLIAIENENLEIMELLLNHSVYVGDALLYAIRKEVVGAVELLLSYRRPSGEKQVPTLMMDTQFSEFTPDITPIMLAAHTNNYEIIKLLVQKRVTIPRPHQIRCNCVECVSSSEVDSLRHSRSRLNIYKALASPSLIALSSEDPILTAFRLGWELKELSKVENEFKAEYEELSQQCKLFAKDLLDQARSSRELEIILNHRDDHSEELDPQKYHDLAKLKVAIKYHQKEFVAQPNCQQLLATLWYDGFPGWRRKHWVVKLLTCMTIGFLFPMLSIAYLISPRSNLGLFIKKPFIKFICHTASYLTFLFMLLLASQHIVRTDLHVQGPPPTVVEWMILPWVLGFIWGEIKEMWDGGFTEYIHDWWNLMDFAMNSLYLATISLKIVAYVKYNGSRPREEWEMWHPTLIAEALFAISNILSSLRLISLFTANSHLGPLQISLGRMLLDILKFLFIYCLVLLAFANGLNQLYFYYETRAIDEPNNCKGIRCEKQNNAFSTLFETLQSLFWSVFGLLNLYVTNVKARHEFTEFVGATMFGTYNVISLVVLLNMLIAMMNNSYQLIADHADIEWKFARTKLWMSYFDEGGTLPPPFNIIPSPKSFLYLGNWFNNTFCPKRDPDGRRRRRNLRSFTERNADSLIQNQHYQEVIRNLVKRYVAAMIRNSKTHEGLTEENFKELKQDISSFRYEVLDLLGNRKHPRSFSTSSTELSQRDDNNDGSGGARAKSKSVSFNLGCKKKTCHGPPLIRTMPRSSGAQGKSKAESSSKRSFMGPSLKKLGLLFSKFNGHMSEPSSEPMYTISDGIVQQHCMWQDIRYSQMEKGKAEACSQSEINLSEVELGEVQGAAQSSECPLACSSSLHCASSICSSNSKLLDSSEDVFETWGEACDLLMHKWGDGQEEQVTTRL
# Assay: Inhibition of human TRPC5 expressed in HEK293-T-REx cells assessed as decrease in riluzole-induced calcium response preincubated for 5 min followed by riluzole stimulation by Fluo-4 AM dye based FLIPR assay
# Assay type: cell-based
row,SMILES,IC50
1,CCc1c(F)cccc1Oc1ncnc2c1CCN(c1cn[nH]c(=O)c1Cl)C2,≤ 50 nM
2,O=c1[nH]ncc(N2CCc3c(ncnc3Oc3ccccc3C(F)(F)F)C2)c1Cl,≤ 50 nM

# Other lines, results leading:
row,IC50,SMILES
1,≤ 50 nM,O=c1[nH]ncc(N2CCc3c(ncnc3N(CCO)c3ccc(F)cc3C(F)(F)F)C2)c1Cl
2,≤ 50 nM,CN(c1cnccc1C(F)(F)F)c1ncnc2c1CCN(c1cn[nH]c(=O)c1Cl)C2
3,≤ 50 nM,O=c1[nH]ncc(N2CCc3c(ncnc3Oc3ccc(F)cc3Cl)C2)c1Cl

# Reference: ChEMBL document CHEMBL4706721, “Novel Pyridazinones as TRPC5 Inhibitors for Treating Kidney Diseases” (ACS Med Chem Lett, 2021)
